# Experimental data as given in patent publication US20130071521A1, “REBAUDIOSIDE D SWEETENERS AND FOOD PRODUCTS SWEETENED WITH REBAUDIOSIDE D” (PEPSICO, INC., priority 2007, published 2013).
# Where a SMILES comes first, the peptide text is derived from it.
# Columns and labels:
# [1] = cited from earlier work; for potency, times as sweet as sugar: commonly accepted potency figures
# [2] = test system: sensory panel of twelve testers; assay: Sensory panel evaluation of initial sweetness characteristics of sweeteners in water (Example 1); type: in vivo; settings: for initial sweetness perception: FIG. 2/FIG. 4; for initial bitterness perception: FIG. 3/FIG. 5
# Description: Sensory evaluations of different sweeteners at various concentrations were performed to provide comparative analysis of organoleptic characteristics of aqueous solutions of rebaudioside D, versus other sweeteners. The rebaudioside D was a stevia extract having a purity of at least 93% by weight rebaudioside D (Reb D). Initial sweetness characteristics of three concentrations of such Reb D in water were determined by a sensory panel of twelve testers. Sensory panels are well known to those of skill in the art, and comprise testers trained to evaluate the organoleptic attributes of comestibles. Typically, sensory panelists have been screened for their taste acuity and extensively trained in the use of standardized vocabulary to describe the appearance, aroma, flavor, mouthfeel and aftertaste of a wide variety of products, as well as scaling techniques to quantify the attributes. The numerical data generated by the sensory panel testers were then analyzed for their statistical significance.
# The water employed in the tests of Example 1 comprised purified water as described in detail above, and having a pH of 7.0. The initial sweetness characteristics of 1200 parts per million (ppm) Reb D in water were compared to the initial sweetness characteristics of aqueous solutions of each of 1200 ppm rebaudioside A (Reb A), sucrose, aspartame and sucralose. The rebaudioside A was a stevia extract comprising a purity of 95% by weight rebaudioside A (PureCircle USA Inc., Oak Brook, Ill.). The specific attributes tested by the sensory panel comprised sweetness, thickness, astringency, bitterness, numbing, cooling and licorice.
# The initial sweetness characteristics of other concentrations of rebaudioside D in water were also tested and compared to the same concentrations of rebaudioside A in water. […] FIGS. 2 through 5 illustrate the differences in the characteristics of sweetness and bitterness attributes between Reb D and Reb A.
# [3] = test system: sensory panel of twelve testers; assay: Sensory panel evaluation in water, noncarbonated beverage base and carbonated beverage base (Example 2); type: in vivo; design: Sweetness / Bitterness: scale not given here; settings: for interaction between the sweetener and the three beverage bases (initial sweetness attribute plots): water, noncarbonated and carbonated beverage base
# Description: Potential beverage base effects on the initial sweetness perception of rebaudioside D were investigated by performing tests of three concentrations of rebaudioside D (Reb D) in water, in a noncarbonated beverage base, and in a carbonated beverage base, by a sensory panel of twelve testers. The numerical data generated by the sensory panel testers were then analyzed for their statistical significance.
# The water employed for the tests of this Example comprised the characteristics as described in Example 1. The noncarbonated beverage base comprised purified water, and citric acid in an amount sufficient to decrease the pH of the noncarbonated beverage base to 3.1. The carbonated beverage base comprised purified water, carbon dioxide, and citric acid in an amount sufficient to decrease the pH of the noncarbonated beverage base to about 3.1. The initial sweetness characteristics of 606 parts per million (ppm) Reb D in water were compared to the initial sweetness characteristics of 606 ppm Reb D in noncarbonated beverage base and 606 ppm Reb D in carbonated beverage base.
# The specific attributes tested by the sensory panel comprised sweetness, thickness, astringency, bitterness, numbing, cooling, licorice, burn/tingle and mouthcoat.
# [4] = Kinghorn (2002) page 138, cited from earlier work; for relative quality of taste, as compared to stevioside: stevioside is rated 0
# [5] = 360 ppm (sucrose 5.4 brix), FIGS. 16-18
# [6] = 606 ppm (sucrose 8.5 brix), FIGS. 13-15
# [7] = CSD (carbonated beverage base), 360 ppm
# [8] = CSD (carbonated beverage base), 606 ppm
# [9] = High Level, 1200 ppm, averaged across all three beverage bases
# [10] = Low-Medium Level, 360 ppm, averaged across all three beverage bases
# [11] = Medium Level, 606 ppm, averaged across all three beverage bases
# [12] = NCB (noncarbonated beverage base), 360 ppm
# [13] = NCB (noncarbonated beverage base), 606 ppm
structure (smiles),measurement,setting,value
CC1=CC(=O)NS(=O)(=O)O1 [Acesulfame-K],"potency, times as sweet as sugar",[1],200 times as sweet as sugar
COC(=O)[C@H](Cc1ccccc1)NC(=O)[C@@H](N)CC(=O)O [Aspertame] (HELM PEPTIDE1{D.F.[CO[*:1]]}$$$$V2.0),"potency, times as sweet as sugar",[1],200 times as sweet as sugar
C[C@H](CC[C@@H](O[C@@H]1O[C@H](CO[C@@H]2O[C@H](CO)[C@@H](O)[C@H](O)[C@H]2O)[C@@H](O)[C@H](O)[C@H]1O[C@@H]1O[C@H](CO)[C@@H](O)[C@H](O)[C@H]1O)C(C)(C)O)[C@H]1CC[C@@]2(C)[C@@H]3CC=C4[C@@H](CC[C@H](O[C@@H]5O[C@H](CO[C@@H]6O[C@H](CO)[C@@H](O)[C@H](O)[C@H]6O)[C@@H](O)[C@H](O)[C@H]5O)C4(C)C)[C@]3(C)[C@H](O)C[C@]12C [Mogroside V],"potency, times as sweet as sugar",[1],100-300 times as sweet as sugar
COc1ccc(CCC(=O)c2c(O)cc(O[C@@H]3O[C@H](CO)[C@@H](O)[C@H](O)[C@H]3O[C@@H]3O[C@@H](C)[C@H](O)[C@@H](O)[C@H]3O)cc2O)cc1O [Neohesperidin dihydrochalcone],"potency, times as sweet as sugar",[1],300 times as sweet as sugar
COC(=O)[C@H](Cc1ccccc1)NC(=O)[C@H](CC(=O)O)NCCC(C)(C)C [Neotame],"potency, times as sweet as sugar",[1],"8,000 times as sweet as sugar"
"C=C1C[C@@]23CC[C@H]4[C@@](C)(CCC[C@@]4(C)C(=O)O[C@@H]4O[C@H](CO)[C@@H](O)[C@H](O)[C@H]4O)[C@@H]2CC[C@]1(O[C@@H]1O[C@H](CO)[C@@H](O)[C@H](O[C@@H]2O[C@H](CO)[C@@H](O)[C@H](O)[C@H]2O)[C@H]1O[C@@H]1O[C@H](CO)[C@@H](O)[C@H](O)[C@H]1O)C3 [Reb A, rebaudioside A, reference compound]",initial sweetness perception,[2]; 360 ppm in water,about 60
same,initial bitterness perception,[2]; 360 ppm in water,about 38
same,initial sweetness perception,[2]; 1200 ppm in water,about 68
same,initial bitterness perception,[2]; 1200 ppm in water,about 85
same,interaction between the sweetener and the three beverage bases (initial sweetness attribute plots),[3]; [5],no significant interaction
same,interaction between the sweetener and the three beverage bases (initial sweetness attribute plots),[3]; [6],no significant interaction
same,Bitterness,[3]; [7],20.5
same,Sweetness,[3]; [7],50.7
same,Bitterness,[3]; [8],28.2
same,Sweetness,[3]; [8],66.0
same,Bitterness,[3]; [9],45.1
same,Sweetness,[3]; [9],70.6
same,Bitterness,[3]; [10],21.0
same,Sweetness,[3]; [10],52.6
same,Bitterness,[3]; [11],33.4
same,Sweetness,[3]; [11],63.5
same,Bitterness,[3]; [12],24.4
same,Sweetness,[3]; [12],52.3
same,Bitterness,[3]; [13],29.8
same,Sweetness,[3]; [13],68.5
same,Bitterness,"[3]; Water, 360 ppm",21.0
same,Sweetness,"[3]; Water, 360 ppm",52.6
same,Bitterness,"[3]; Water, 606 ppm",33.4
same,Sweetness,"[3]; Water, 606 ppm",63.5
same,sweetness relative to sucrose,[1]; background statement,approximately 200 times sweeter than sucrose
same,"potency, times as sweet as sugar",[1],150-200 times as sweet as sugar
same,sweetness (value reported by Kinghorn),[4],242
same,"relative quality of taste, as compared to stevioside",[4],+2
O=C1NS(=O)(=O)c2ccccc21 [Saccharin],"potency, times as sweet as sugar",[1],300 times as sweet as sugar
OC[C@H]1O[C@H](O[C@]2(CCl)O[C@H](CCl)[C@@H](O)[C@@H]2O)[C@H](O)[C@@H](O)[C@H]1Cl [Sucralose],"potency, times as sweet as sugar",[1],600 times as sweet as sugar
C=C1C[C@@]23CC[C@H]4[C@@](C)(CCC[C@@]4(C)C(=O)O[C@@H]4O[C@H](CO)[C@@H](O)[C@H](O)[C@H]4O)[C@@H]2CC[C@]1(O[C@@H]1O[C@H](CO)[C@@H](O)[C@H](O)[C@H]1O[C@@H]1O[C@H](CO)[C@@H](O)[C@H](O)[C@H]1O)C3 [stevioside],"potency, times as sweet as sugar",[1],100-250 times as sweet as sugar
same,"relative quality of taste, as compared to stevioside",[4],0
"OC[C@H]1O[C@@](CO)(O[C@H]2O[C@H](CO)[C@@H](O)[C@H](O)[C@H]2O)[C@@H](O)[C@@H]1O [sucrose, reference compound]",interaction between the sweetener and the three beverage bases (initial sweetness attribute plots),[3]; [5],no significant interaction
same,interaction between the sweetener and the three beverage bases (initial sweetness attribute plots),[3]; [6],no significant interaction
